Where two headings read alike, the source gives them in different places.
Target: T1, mitochondrial calcium/sodium antiporter (Rattus norvegicus, UniProt Q6AXS0)
T1 sequence (Q6AXS0 1-585): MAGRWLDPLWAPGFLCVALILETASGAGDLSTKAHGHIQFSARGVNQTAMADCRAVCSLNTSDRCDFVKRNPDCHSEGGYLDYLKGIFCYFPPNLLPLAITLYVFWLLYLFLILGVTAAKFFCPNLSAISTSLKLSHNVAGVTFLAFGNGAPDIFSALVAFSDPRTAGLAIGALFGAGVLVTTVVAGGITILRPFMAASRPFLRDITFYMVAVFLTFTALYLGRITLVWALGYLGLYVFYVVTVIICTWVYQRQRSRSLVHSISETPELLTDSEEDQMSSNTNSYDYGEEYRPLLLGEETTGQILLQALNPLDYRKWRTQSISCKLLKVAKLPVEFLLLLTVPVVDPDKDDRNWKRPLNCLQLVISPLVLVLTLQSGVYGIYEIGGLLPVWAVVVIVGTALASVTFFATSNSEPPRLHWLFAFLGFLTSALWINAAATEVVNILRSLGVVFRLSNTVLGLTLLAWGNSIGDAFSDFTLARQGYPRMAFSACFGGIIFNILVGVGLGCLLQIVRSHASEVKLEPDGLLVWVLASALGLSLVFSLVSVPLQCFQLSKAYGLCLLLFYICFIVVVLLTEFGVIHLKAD
Assay: Inhibition of mitochondrial calcium/sodium antiporter activity (NaCl-induced mitochondrial calcium efflux, calcium green 5N fluorescence)
Format: cell-based
Details: digitonin-permeabilized INS-1 cells, 20 mM NaCl
Protocol: INS-1 rat insulinoma cells (see Example 16) were harvested by trypsinization, washed and resuspended at 10×10^6 cells/ml in assay buffer (250 mM sucrose, 10 mM HEPES, 2.5 mM K2HPO4, 5 mM succinate, pH 7.4) containing 0.007% digitonin, 60 μM CaCl2 and 0.05 μM calcium green 5N (Molecular Probes, Inc., Eugene, Oreg.). After a five-minute calcium loading incubation, ruthenium red (1 μM; Sigma, St. Louis, Mo.) was added to block further calcium uptake by mitochondria. Cell suspensions were dispensed into 96-well plates (100 μl per well, 1×10^6 cells per well) and candidate agents (i.e., candidate mitochondrial calcium/sodium antiporter inhibitors) were added to some sets of triplicate wells at concentrations of 1, 10 or 100 μM, while other sets of wells provided appropriate control conditions (e.g., buffer and vehicle controls). Baseline fluorescence measurements were made using a multiwell plate fluorimeter (F-MAX™, Molecular Devices Corp., Sunnyvale, Calif.; or PolarStar™, BMG Labtechnologies, Inc., Durham, N.C.) according to the manufacturer's instructions. Calcium efflux from mitochondria was then induced by adding NaCl to all wells to achieve a final concentration of 20 mM, and the rate of change in fluorescence in each well was monitored […] for two minutes and quantified using software included with the plate reader.

[1] = Table 3, more preferred compounds, read-out: IC50 ≦ 1 μM
[2] = Table 2, preferred compounds, read-out: IC50 ≦ 10 μM

| IC50 [1] | SMILES | IC50 [2] |
| --- | --- | --- |
| ≤ 1 µM | COc1ccc(C(=O)NCCSC(CC(C)C)c2cc(Cl)ccc2N)cc1OC (stereo not shown) [Compound 16aa] |  |
| ≤ 1 µM | COc1cc(C(=O)NCCSC(c2cc(Cl)ccc2N)C(C)C)cc(OC)c1OC (stereo not shown) [Compound 16ab] |  |
| ≤ 1 µM | COc1cc(C(=O)NCCSC(CC(C)C)c2cc(Cl)ccc2N)cc(OC)c1OC (stereo not shown) [Compound 16ac] |  |
| ≤ 1 µM | COc1ccc(C(=O)NCCSC(c2cc(F)ccc2N)C2CCCCC2)cc1OC (stereo not shown) [Compound 16ad] |  |
| ≤ 1 µM | COc1ccc(C(=O)NCCSC(c2ccccc2N)C2CCCCC2)cc1OC (stereo not shown) [Compound 16ae] |  |
| ≤ 1 µM | COc1ccccc1C(=O)NCCSC(c1cc(Cl)ccc1N)C1CCCCC1 (stereo not shown) [Compound 16q] |  |
| ≤ 1 µM | COc1ccc(C(=O)NCCSC(c2cc(Cl)ccc2N)C(C)C)cc1OC (stereo not shown) [Compound 16z] |  |
| ≤ 1 µM | COc1ccc(NC(=O)NCCSC(c2cc(Cl)ccc2N)C2CCCCC2)c(OC)c1 (stereo not shown) [Compound 17g] |  |
| ≤ 1 µM | COc1cc(NC(=O)NCCSC(c2cc(Cl)ccc2N)C2CCCCC2)cc(OC)c1OC (stereo not shown) [Compound 17h] |  |
| ≤ 1 µM | COc1cc(NC(=S)NCCSC(c2cc(Cl)ccc2N)C2CCCCC2)cc(OC)c1OC (stereo not shown) [Compound 17i] |  |
| ≤ 1 µM | COc1ccc(NC(=O)NCCSC(c2cc(Cl)ccc2N)C2CCCCC2)cc1OC (stereo not shown) [Compound 17j] |  |
| ≤ 1 µM | COc1ccc(NC(=S)NCCSC(c2cc(Cl)ccc2N)C2CCCCC2)c(OC)c1 (stereo not shown) [Compound 17k] |  |
| ≤ 1 µM | COc1ccc(S(=O)(=O)NCCSC(c2cc(Cl)ccc2N)C2CCCCC2)cc1OC (stereo not shown) [Compound 18f] |  |
| ≤ 1 µM | COc1ccc(S(=O)(=O)NCCSC(c2cc(F)ccc2N)C2CCCCC2)cc1OC (stereo not shown) [Compound 18g] |  |
| ≤ 1 µM | COC(=O)CSCC(c1cc(Cl)ccc1N)c1ccccc1F (stereo not shown) [Compound 20b] | ≤ 10 µM |
| ≤ 1 µM | COC(=O)CSCC(c1cc(Br)ccc1N)c1ccccc1F (stereo not shown) [Compound 20c] | ≤ 10 µM |
| ≤ 1 µM | Cc1noc(CSCC(c2cc(Cl)ccc2N)c2ccccc2Cl)n1 (stereo not shown) [Compound 22a] | ≤ 10 µM |
| ≤ 1 µM | Cc1noc(CSCC(c2cc(Cl)ccc2N)c2ccccc2F)n1 (stereo not shown) [Compound 22b] | ≤ 10 µM |
| ≤ 1 µM | Cc1noc(CSCC(c2ccccc2)c2cc(Cl)ccc2N)n1 (stereo not shown) [Compound 22d] | ≤ 10 µM |
| ≤ 1 µM | CCOC(=O)C(c1ccccc1C)c1ccccc1[N+](=O)[O-] (stereo not shown) [Compound 25b] | ≤ 10 µM |
| ≤ 1 µM | COC(=O)C(c1ccccc1[N+](=O)[O-])c1cccc2ccccc12 (stereo not shown) [Compound 25d] | ≤ 10 µM |
| ≤ 1 µM | O=C(NCCc1ccccc1)C(c1cccc(Cl)c1)c1ccccc1[N+](=O)[O-] (stereo not shown) [Compound 26b] | ≤ 10 µM |

Further lines, the compound ahead of its results:

| SMILES | IC50 [1] | IC50 [2] |
| --- | --- | --- |
| COc1ccc(CC(=O)NCCSC(c2cc(Cl)ccc2N)c2ccccc2Cl)cc1OC (stereo not shown) [Compound 16b] | ≤ 1 µM | ≤ 10 µM |
| Nc1ccc(Cl)cc1C(SCCNC(=O)c1ccc(Cl)cc1Cl)c1ccccc1Cl (stereo not shown) [Compound 16c] |  | ≤ 10 µM |
| COc1ccc(C(=O)NCCSC(c2cc(Cl)ccc2N)c2ccccc2Cl)cc1OC (stereo not shown) [Compound 16d] | ≤ 1 µM | ≤ 10 µM |
| Nc1ccc(Cl)cc1C(SCCNC(=O)c1cccc(Br)c1)c1ccccc1Cl (stereo not shown) [Compound 16e] | ≤ 1 µM | ≤ 10 µM |
| COC1CCC(C(=O)NCCSC(c2cc(Cl)ccc2N)c2ccccc2Cl)CC1 (stereo not shown) [Compound 16f] | ≤ 1 µM | ≤ 10 µM |
| Nc1ccc(Cl)cc1C(SCCNC(=O)c1ccc([N+](=O)[O-])cc1)c1ccccc1Cl (stereo not shown) [Compound 16g] | ≤ 1 µM | ≤ 10 µM |
| Nc1ccc(Cl)cc1C(SCCNC(=O)C1CCC1)c1ccccc1Cl (stereo not shown) [Compound 16h] | ≤ 1 µM | ≤ 10 µM |
| Nc1ccc(Cl)cc1C(SCCNC(=O)C1CCCCC1)c1ccccc1Cl (stereo not shown) [Compound 16i] | ≤ 1 µM | ≤ 10 µM |
| CC(C)C(=O)NCCSC(c1cc(Cl)ccc1N)c1ccccc1Cl (stereo not shown) [Compound 16j] | ≤ 1 µM | ≤ 10 µM |
| Nc1ccc(Cl)cc1C(SCCNC(=O)c1cccnc1)c1ccccc1Cl (stereo not shown) [Compound 16k] | ≤ 1 µM | ≤ 10 µM |
| Nc1ccc(Cl)cc1C(SCCNC(=O)COc1ccccc1)c1ccccc1Cl (stereo not shown) [Compound 16l] | ≤ 1 µM | ≤ 10 µM |
| Nc1ccc(Cl)cc1C(SCCNC(=O)c1ccccn1)c1ccccc1Cl (stereo not shown) [Compound 16m] | ≤ 1 µM | ≤ 10 µM |
| COc1ccc(C(=O)NCCSC(c2cc(Cl)ccc2N)C2CCCCC2)cc1OC (stereo not shown) [Compound 16n] | ≤ 1 µM |  |
| COc1cc(C(=O)NCCSC(c2cc(Cl)ccc2N)C2CCCCC2)cc(OC)c1O (stereo not shown) [Compound 16p] |  | ≤ 10 µM |
| COc1cccc(C(=O)NCCSC(c2cc(Cl)ccc2N)C2CCCCC2)c1 (stereo not shown) [Compound 16r] | ≤ 1 µM |  |
| COc1ccc(C(=O)NCCSC(c2cc(Cl)ccc2N)C2CCCCC2)cc1 (stereo not shown) [Compound 16s] | ≤ 1 µM |  |
| Nc1ccc(Cl)cc1C(SCCNC(=O)c1cccnc1)C1CCCCC1 (stereo not shown) [Compound 16t] | ≤ 1 µM |  |
| Nc1ccc(Cl)cc1C(SCCNC(=O)c1ccncc1)C1CCCCC1 (stereo not shown) [Compound 16u] | ≤ 1 µM |  |
| Nc1ccc(Cl)cc1C(SCCNC(=O)c1cn[nH]c1)C1CCCCC1 (stereo not shown) [Compound 16v] |  | ≤ 10 µM |
| Nc1ccc(Cl)cc1C(SCCNC(=O)c1ccc2c(c1)OCO2)C1CCCCC1 (stereo not shown) [Compound 16w] | ≤ 1 µM |  |
| CS(=O)(=O)c1ccc(C(=O)NCCSC(c2cc(Cl)ccc2N)C2CCCCC2)cc1 (stereo not shown) [Compound 16x] | ≤ 1 µM |  |
| Nc1ccc(Cl)cc1C(SCCNC(=O)c1ccc(S(N)(=O)=O)cc1)C1CCCCC1 (stereo not shown) [Compound 16y] |  | ≤ 10 µM |

| SMILES | IC50 [1] | IC50 [2] |
| --- | --- | --- |
| Nc1ccc(Cl)cc1C(SCCNC(=O)Nc1cccc(F)c1)c1ccccc1Cl (stereo not shown) [Compound 17a] |  | ≤ 10 µM |
| Nc1ccc(Cl)cc1C(SCCNC(=O)Nc1ccccc1OC(F)(F)F)c1ccccc1Cl (stereo not shown) [Compound 17b] | ≤ 1 µM | ≤ 10 µM |
| Nc1ccc(Cl)cc1C(SCCNC(=O)Nc1cc(F)ccc1F)c1ccccc1Cl (stereo not shown) [Compound 17d] |  | ≤ 10 µM |
| Nc1ccc(Cl)cc1C(SCCNC(=O)Nc1cccc(Cl)c1Cl)c1ccccc1Cl (stereo not shown) [Compound 17e] |  | ≤ 10 µM |
| COc1ccc(NC(=O)NCCSC(c2cc(Cl)ccc2N)c2ccccc2Cl)c(OC)c1 (stereo not shown) [Compound 17f] | ≤ 1 µM | ≤ 10 µM |
| Nc1ccc(Cl)cc1C(SCCNS(=O)(=O)c1ccccc1)c1ccccc1Cl (stereo not shown) [Compound 18b] | ≤ 1 µM | ≤ 10 µM |
| Nc1ccc(Cl)cc1C(SCCNS(=O)(=O)c1ccccc1[N+](=O)[O-])c1ccccc1Cl (stereo not shown) [Compound 18c] | ≤ 1 µM | ≤ 10 µM |
| Nc1ccc(Cl)cc1C(SCCNS(=O)(=O)c1ccc(OC(F)(F)F)cc1)c1ccccc1Cl (stereo not shown) [Compound 18d] |  | ≤ 10 µM |
| CS(=O)(=O)NCCSC(c1cc(Cl)ccc1N)c1ccccc1Cl (stereo not shown) [Compound 18e] | ≤ 1 µM | ≤ 10 µM |
| COC(=O)CSCC(c1cc(Cl)ccc1N)c1ccccc1Cl (stereo not shown) [Compound 20a] |  | ≤ 10 µM |
| COC(=O)CSCC(c1ccccc1)c1cc(Cl)ccc1N (stereo not shown) [Compound 20d] | ≤ 1 µM | ≤ 10 µM |
| NC(=O)CSCC(c1cc(Cl)ccc1N)c1ccccc1Cl (stereo not shown) [Compound 21a] |  | ≤ 10 µM |
| NC(=O)CSCC(c1ccccc1)c1cc(Cl)ccc1N (stereo not shown) [Compound 21d] | ≤ 1 µM | ≤ 10 µM |
| CNC(=O)CSCC(c1cc(Cl)ccc1N)c1ccccc1Cl (stereo not shown) [Compound 21e] | ≤ 1 µM | ≤ 10 µM |
| CNC(=O)CSCC(c1cc(Cl)ccc1N)c1ccccc1F (stereo not shown) [Compound 21f] | ≤ 1 µM | ≤ 10 µM |
| CNC(=O)CSCC(c1cc(Br)ccc1N)c1ccccc1F (stereo not shown) [Compound 21g] |  | ≤ 10 µM |
| CNC(=O)CSCC(c1ccccc1)c1cc(Cl)ccc1N (stereo not shown) [Compound 21h] | ≤ 1 µM | ≤ 10 µM |
| Cc1noc(CSCC(c2cc(Br)ccc2N)c2ccccc2F)n1 (stereo not shown) [Compound 22c] |  | ≤ 10 µM |
| COC(=O)C(c1cccc(Cl)c1)c1ccccc1[N+](=O)[O-] (stereo not shown) [Compound 25a] |  | ≤ 10 µM |
| COC(=O)C(c1ccccc1)c1ccccc1[N+](=O)[O-] (stereo not shown) [Compound 25c] |  | ≤ 10 µM |
| CNC(=O)C(c1cccc(Cl)c1)c1ccccc1[N+](=O)[O-] (stereo not shown) [Compound 26a] |  | ≤ 10 µM |

Reference: patent US6958352B2, “Compounds for inhibiting insulin secretion and methods related thereto” (SmithKline Beecham Corporation, priority 2002, dated 2005)
